According to ChEMBL document CHEMBL5042544, “Discovery of a Potent and Selective ATAD2 Bromodomain Inhibitor with Antiproliferative Activity in Breast Cancer Models” (J Med Chem, 2022):

Legend:
[1] = biological target: T1, ATPase family AAA domain-containing protein 2 (Homo sapiens, UniProt Q6PL18); assay: Inhibition of GST-ATAD2 BD (951 to 1132 residues) (unknown origin) expressed in Escherichia coli BL21 (DE3) and biotinylated tetra-acetylated histone H4 peptides as substrate incubated for 30 mins by TR-FRET assay
T1 sequence (Q6PL18 whole entry): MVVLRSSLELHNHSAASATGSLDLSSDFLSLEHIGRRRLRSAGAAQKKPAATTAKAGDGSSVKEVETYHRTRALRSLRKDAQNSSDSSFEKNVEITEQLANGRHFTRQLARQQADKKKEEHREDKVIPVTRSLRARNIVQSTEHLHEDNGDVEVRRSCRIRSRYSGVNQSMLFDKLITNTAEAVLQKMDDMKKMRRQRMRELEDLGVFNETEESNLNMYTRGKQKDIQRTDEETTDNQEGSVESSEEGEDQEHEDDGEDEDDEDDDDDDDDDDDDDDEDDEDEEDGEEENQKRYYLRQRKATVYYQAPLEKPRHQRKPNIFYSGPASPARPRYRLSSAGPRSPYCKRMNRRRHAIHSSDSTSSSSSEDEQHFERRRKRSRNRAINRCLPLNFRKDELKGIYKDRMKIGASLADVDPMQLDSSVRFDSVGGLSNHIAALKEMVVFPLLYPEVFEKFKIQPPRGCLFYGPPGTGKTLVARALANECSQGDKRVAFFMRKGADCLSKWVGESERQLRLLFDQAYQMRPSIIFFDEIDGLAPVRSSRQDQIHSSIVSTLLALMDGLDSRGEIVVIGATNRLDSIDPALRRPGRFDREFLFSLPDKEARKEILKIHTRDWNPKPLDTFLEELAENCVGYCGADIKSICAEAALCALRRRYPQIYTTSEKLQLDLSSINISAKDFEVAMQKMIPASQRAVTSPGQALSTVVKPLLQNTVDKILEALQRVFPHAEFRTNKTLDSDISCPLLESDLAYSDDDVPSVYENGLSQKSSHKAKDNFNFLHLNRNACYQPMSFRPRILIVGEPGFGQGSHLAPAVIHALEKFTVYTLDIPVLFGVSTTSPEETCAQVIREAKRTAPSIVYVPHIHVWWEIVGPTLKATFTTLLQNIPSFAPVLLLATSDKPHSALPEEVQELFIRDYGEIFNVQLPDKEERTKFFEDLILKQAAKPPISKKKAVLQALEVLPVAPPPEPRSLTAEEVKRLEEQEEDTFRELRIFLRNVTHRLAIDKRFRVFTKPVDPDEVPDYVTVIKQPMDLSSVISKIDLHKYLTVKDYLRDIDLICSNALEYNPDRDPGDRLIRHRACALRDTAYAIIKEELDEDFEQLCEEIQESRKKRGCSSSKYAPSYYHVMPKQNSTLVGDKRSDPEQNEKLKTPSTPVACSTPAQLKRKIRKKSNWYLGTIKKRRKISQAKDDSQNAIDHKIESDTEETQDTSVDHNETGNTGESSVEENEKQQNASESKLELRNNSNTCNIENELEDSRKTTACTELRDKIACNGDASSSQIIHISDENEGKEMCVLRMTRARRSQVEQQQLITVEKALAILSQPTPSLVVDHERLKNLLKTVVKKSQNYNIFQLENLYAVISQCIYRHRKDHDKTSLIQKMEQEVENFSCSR

[2] = biological target: T1, ATPase family AAA domain-containing protein 2; assay: Inhibition of GST-ATAD2 BD (951 to 1132 residues) (unknown origin) expressed in Escherichia coli BL21 (DE3) and biotinylated tetra-acetylated histone H4 peptides as substrate by TR-FRET artifact assay
[3] = biological target: T2, Bromodomain-containing protein 4 (Homo sapiens, UniProt O60885); assay: Displacement of Alexafluor 647-JQ1 from GST-BRD4 BD1 BD2 (44 to 460 residues) (unknown origin) incubated for 60 mins by fluorescence polarization assay
[4] = Distribution coefficient, logD of compound at pH 7.4; format: physicochemical; settings: octanol/water
[5] = biological target: T1, ATPase family AAA domain-containing protein 2; assay: Displacement of Halo-tagged Histone H3.3 from Nanoluc-ATAD2A BD (962 to 1119 residues) (unknown origin) transfected in human HCT116 cells incubated for 18 hrs by NanoBRET assay; format: cell-based, HCT-116
[6] = biological target: T2, Bromodomain-containing protein 4; assay: Displacement of Halo-tagged Histone H3.3 from Nanoluc-BRD4 BD1/BD2 (44 to 460 residues) (unknown origin) transfected in human HCT116 cells incubated for 18 hrs by NanoBRET assay; format: cell-based, HCT-116
Homo sapiens = species on record: Homo sapiens; assay: Selectivity ratio of IC50 for Inhibition of […] GST-ATAD2 BD (981 to 1108 residues) (unknown origin) expressed in Escherichia coli BL21 (DE3) to IC50 for Halo-tagged Histone H3.3 from Nanoluc-ATAD2 BD ([…] residues) (unknown origin) transfected in human HCT116 cells
[7] = biological target: T1, ATPase family AAA domain-containing protein 2; assay: Displacement of Halo-tagged Histone H3.3 from Nanoluc-ATAD2 BD (962 to 1119 residues) (unknown origin) transfected in human HCT116 cells incubated for 18 hrs in presence of efflux inhibitor reversan by NanoBRET assay; format: cell-based, HCT-116
[8] = biological target: T1, ATPase family AAA domain-containing protein 2; assay: Displacement of Halo-tagged Histone H3.3 from Nanoluc-ATAD2 BD (962 to 1119 residues) (unknown origin) transfected in human HCT116 cells incubated for 18 hrs in presence of efflux inhibitor verapamil by NanoBRET assay; format: cell-based, HCT-116
[9] = biological target: T1, ATPase family AAA domain-containing protein 2; assay: Displacement of Halo-tagged Histone H3.3 from Nanoluc-ATAD2 BD (962 to 1119 residues) (unknown origin) transfected in human HCT116 cells incubated for 18 hrs in presence of efflux inhibitor elacridar by NanoBRET assay; format: cell-based, HCT-116
[10] = biological target: T1, ATPase family AAA domain-containing protein 2; assay: Inhibition of GST-ATAD2 BD (981 to 1108 residues) (unknown origin) expressed in Escherichia coli BL21 (DE3) and biotinylated tetra-acetylated histone H4 peptides as substrate incubated for 30 mins by TR-FRET assay
MDA-MB-231 = assay: Antiproliferative activity against human MDA-MB-231 cells assessed as inhibition of proliferation after 72 hrs; format: functional

Compound	IC50 [1] [nM]	IC50 [2] [µM]	IC50 [3] [µM]	logD [4]	IC50 [5] [nM]	IC50 [6] [µM]	Ratio IC50 (Homo sapiens)	IC50 [7] [nM]	IC50 [8] [nM]	IC50 [9] [nM]	IC50 [10] [nM]	GI50 (MDA-MB-231) [nM]
COc1cc(C(=O)N2C3Cc4ccccc4C2CNC3=O)cc(OC)c1O (stereo unspecified)	20200	> 25.1	> 31.6	0.9	–	–	–	–	–	–	–	–
Cc1cc(C(=O)N2[C@H]3Cc4ccccc4[C@@H]2CNC3=O)c[nH]c1=O	26300	> 25.1	> 31.6	0.3	–	–	–	–	–	–	–	–
COc1cc(C(=O)N2[C@H]3Cc4ccccc4[C@@H]2CNC3=O)cc2c(C)n[nH]c12	4880	> 251	> 31.6	2	–	–	–	–	–	–	–	–
Cc1nnc2c(N)cc(C(=O)N3[C@H]4Cc5ccccc5[C@@H]3CNC4=O)cn12	6080	> 25.1	> 31.6	0.1	–	–	–	–	–	–	–	–
C[C@H]1NC(=O)[C@@H]2Cc3ccccc3[C@H]1N2C(=O)c1cn(C)c(=O)c2[nH]c3ccccc3c12	210	> 25.1	31.6	1.9	–	–	–	–	–	–	–	–
Cc1nnc2c(NCCCN3CCCC3)cc(C(=O)N3[C@H]4Cc5ccccc5[C@@H]3CNC4=O)nn12	41	> 25.1	> 31.6	-0.3	–	–	–	–	–	–	–	–
Cc1nnc2c(NCCCN3CCC(F)(F)CC3)cc(C(=O)N3[C@@H]4c5ccccc5C[C@H]3C(=O)N[C@@H]4C(C)C)nn12	20	> 25.1	> 31.6	3	1260	31.6	63	–	–	–	–	–
Cn1cc(C(=O)N2[C@H]3Cc4ccccc4[C@@H]2CNC3=O)cc(N)c1=O	34300	> 25.1	> 31.6	0	–	–	–	–	–	–	–	–
Cc1nnc2c(NC3CCN(C)CC3)cc(C(=O)N3[C@H]4Cc5ccccc5[C@@H]3CNC4=O)cn12	370	> 25.1	> 31.6	-0.5	–	–	–	–	–	–	–	–
Cn1cc(C(=O)N2[C@H]3Cc4ccccc4[C@@H]2CNC3=O)c2c([nH]c3ccccc32)c1=O	420	> 25.1	7.94	2	–	–	–	–	–	–	–	–
CO[C@H]1CNC[C@@H](OCC2CCC(F)(F)CC2)[C@@H]1Nc1ncc(-c2cncc(C)c2)c2cc(C)c(=O)[nH]c12	–	–	–	2.7	–	–	–	–	–	–	–	–
CN1C[C@H]2c3ccccc3C[C@@H](C1=O)N2C(=O)c1cn(C)c(=O)c2[nH]ccc12	3560	> 25.1	7.94	0.9	–	–	–	–	–	–	–	–
Cc1nnc2c(NCCCN3CCCC3)cc(C(=O)N3[C@@H]4c5ccccc5C[C@H]3C(=O)N[C@@H]4C(C)C)nn12	14	> 25.1	25.1	0.5	2000	25.1	126	–	–	–	–	–
CC(C)[C@H]1NC(=O)[C@@H]2Cc3ccccc3[C@H]1N2C(=O)c1cn(C)c(=O)c2[nH]c3ccccc3c12	440	> 25.1	> 31.6	2.6	–	–	–	–	–	–	–	–
Cc1nnc2c(NC3CCN(CC(C)(F)F)CC3)cc(C(=O)N3[C@@H]4c5ccccc5C[C@H]3C(=O)N[C@@H]4C(C)C)nn12	22	> 25.1	> 31.6	3	501	50.1	25	501	501	501	–	–
CNc1cc(C(=O)N2[C@H]3Cc4ccccc4[C@@H]2CNC3=O)cn(C)c1=O	11800	> 25.1	–	0.5	–	–	–	–	–	–	–	–
Cc1nnc2c(NC3CCN(C)CC3)cc(C(=O)N3[C@H]4Cc5ccccc5[C@@H]3CNC4=O)nn12	300	> 25.1	> 31.6	0.2	2510	31.6	79	–	–	–	31.6	–
C[C@H]1NC(=O)[C@@H]2Cc3ccccc3[C@H]1N2C(=O)c1cn(C)c(=O)c2[nH]c3ccc(OC(F)(F)F)cc3c12	78	> 25.1	> 31.6	3.4	1260	126	16	794	501	794	–	–
Cc1nnc2c(NC3CCN(C)CC3)nc(C(=O)N3[C@H]4Cc5ccccc5[C@@H]3CNC4=O)cn12	> 20000	–	–	-0.3	–	–	–	–	–	–	–	–
CC1=C(C#N)c2nc(N)c(C#N)c(C)c2/C1=C\c1ccc(-c2cc(C(=O)O)ccc2Cl)o1	–	–	–	–	–	–	–	–	–	–	3160	1000
Cc1nnc2c(N)cc(C(=O)N3[C@H]4Cc5ccccc5[C@@H]3CNC4=O)nn12	280	> 25.1	25.1	0.8	–	–	–	–	–	–	–	–
COc1cc(C(=O)N2[C@H]3Cc4ccccc4[C@@H]2CNC3=O)cc(OC)c1O	21200	> 25.1	> 31.6	0.9	–	–	–	–	–	–	–	–
Cn1cc(C(=O)N2[C@H]3Cc4ccccc4[C@@H]2CNC3=O)c2cc[nH]c2c1=O	1480	> 25.1	15.8	0.7	–	–	–	–	–	–	–	–
